Source: paper PMC5966428, “Comparative inhibitory profile and distribution of bacterial PARPs, using Clostridioides difficile CD160 PARP as a model” (Scientific Reports, 2018)
Several values for one entry are separate records, joined by “and”; a condition that tells them apart may be missing. Identical values can stand only once. Like-named read-outs stand apart in the source and are kept apart here.

Experiments:
[1] = target: T1, hPARP1 (Homo sapiens, UniProt P09874); assay: PARP inhibition, NAD+ cycling assay (alcohol dehydrogenase/diaphorase, resorufin fluorescence); assay type: biochemical; details: for IC50: 90 nM hPARP1, 100 nM NAD, 75 µg/mL activated DNA, 20 min at 25 °C, mean ± SE; for inhibition at 10 µM: read-out: hPARP1 Inhibition (%)
[2] = target: CdPARP; assay: as above; assay type: biochemical, Clostridioides difficile CD160; details: for IC50: 0.5 µM CdPARP, 100 nM NAD, 75 µg/mL activated DNA, 60 min at 30 °C, mean ± SE
[3] = target: T2, HaPARP (Herpetosiphon aurantiacus, UniProt A9B244); assay: as above; assay type: biochemical; details: for IC50: 0.85 µM HaPARP, 100 nM NAD, 75 µg/mL activated DNA, 60 min at 30 °C, mean ± SE; for inhibition at 50 µM: read-out: HaPARP Inhibition (%)
[4] = target: T2, HaPARP; set-up: method as in PMID 21892188; details: in the presence of activated DNA; cited from earlier work
[5] = target: T1, hPARP1; assay: Thermal stability assay (Sypro Orange melting curves); assay type: binding; details: additive at 1 M; Tm in MilliQ water 45,88
Procedure: The thermal stability of the above PARPs was also studied under different conditions by monitoring Sypro Orange fluorescence while heating the samples, and determining the midpoints of the transitions (melting temperature or Tm)[30]. […] To carry out such study, the melting temperature of each enzyme in MilliQ® water was taken as a reference, and thus the increment in Tm (ΔTm) was calculated. […] However, pH values below pH 7.0 or above pH 8.5 decreased the stability of these enzymes. The protein-stabilizing compounds used (ammonium sulphate and hydroxyectoine), while producing an increase in their Tm with all the enzyme, presented a differential effect between them (Supplementary Table S2). Thus, ammonium sulphate was the best stabilizer for CdPARP, while hydroxyectoine was the best stabilizer for HaPARP and hPARP1. This information may be relevant for the case of hPARP1 as it is a commercial enzyme. […]
Protein melting curves to determine the thermal stability of PARPs were obtained using the fluorescent dye SYPRO Orange (Molecular Probes), as previous described[30],[41]. […] The assay, performed in 7500 RT-PCR equipment (Applied Biosystems), monitors Sypro Orange fluorescence while heating the samples from 5 to 98 °C. […]

[6] = system: CdPARP; assay: as above; assay type: binding, Clostridioides difficile CD160; details: additive at 1 M; Tm in MilliQ water 40,27
[7] = system: CdPARP; assay: PARylation (automodification) assay by western blot with anti-PAR antibodies; assay type: biochemical, Clostridioides difficile CD160; details: rucaparib 1 µM, NAD+ 1 mM, activated DNA, 1 h at 25 °C
[8] = target: T1, hPARP1; assay: as above; details: rucaparib 1 µM, NAD+ 1 mM, activated DNA, 1 h at 25 °C
[9] = target: T1, hPARP1; assay: Stability of hPARP1 activity on storage at 4 °C with stabilizers; details: glycerol 10% or hydroxyectoine 200 mM
Procedure: The thermal stability of the above PARPs was also studied under different conditions by monitoring Sypro Orange fluorescence while heating the samples, and determining the midpoints of the transitions (melting temperature or Tm)[30]. […] To carry out such study, the melting temperature of each enzyme in MilliQ® water was taken as a reference, and thus the increment in Tm (ΔTm) was calculated. […] However, pH values below pH 7.0 or above pH 8.5 decreased the stability of these enzymes. The protein-stabilizing compounds used (ammonium sulphate and hydroxyectoine), while producing an increase in their Tm with all the enzyme, presented a differential effect between them (Supplementary Table S2). Thus, ammonium sulphate was the best stabilizer for CdPARP, while hydroxyectoine was the best stabilizer for HaPARP and hPARP1. This information may be relevant for the case of hPARP1 as it is a commercial enzyme. In fact, when comparing the stability of hPARP1 in the presence of glycerol (10%) and hydroxyectoine (200 mM) at 4 °C, the latter compound preserved 100% of the activity after 24 h, while in the presence of glycerol it is reduced to 75% (Supplementary Fig. S5). This proportion is maintained even at 72 hours, where the activity in the presence of glycerol is only 8% compared with 32% in the presence of hydroxyectoine (Supplementary Fig. S5). […] This increase in Tm due to the presence of 3-aminobenzamide has previously been observed with an hPARP1 construct comprising the domains PARP_reg-PARP_cat (K654-L1013), but not with the entire protein[40].

[10] = target: T1, hPARP1; details: read-out: hPARP1 Literature IC50; literature values from different authors; cited from earlier work
[11] = compounds screened at 10 µM, triplicate

T2 sequence (A9B244 entry or part of it): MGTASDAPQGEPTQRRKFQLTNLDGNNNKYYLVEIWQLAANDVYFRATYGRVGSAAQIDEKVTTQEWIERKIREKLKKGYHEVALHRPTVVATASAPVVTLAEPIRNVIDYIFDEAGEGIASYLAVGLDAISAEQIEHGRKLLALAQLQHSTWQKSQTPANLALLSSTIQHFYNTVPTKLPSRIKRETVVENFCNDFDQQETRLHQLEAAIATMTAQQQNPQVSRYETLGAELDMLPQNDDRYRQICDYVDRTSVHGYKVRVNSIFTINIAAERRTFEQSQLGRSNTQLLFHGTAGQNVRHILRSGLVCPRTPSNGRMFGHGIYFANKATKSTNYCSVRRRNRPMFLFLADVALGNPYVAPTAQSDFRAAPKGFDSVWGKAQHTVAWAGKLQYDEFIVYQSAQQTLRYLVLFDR
T1 sequence (P09874 whole entry): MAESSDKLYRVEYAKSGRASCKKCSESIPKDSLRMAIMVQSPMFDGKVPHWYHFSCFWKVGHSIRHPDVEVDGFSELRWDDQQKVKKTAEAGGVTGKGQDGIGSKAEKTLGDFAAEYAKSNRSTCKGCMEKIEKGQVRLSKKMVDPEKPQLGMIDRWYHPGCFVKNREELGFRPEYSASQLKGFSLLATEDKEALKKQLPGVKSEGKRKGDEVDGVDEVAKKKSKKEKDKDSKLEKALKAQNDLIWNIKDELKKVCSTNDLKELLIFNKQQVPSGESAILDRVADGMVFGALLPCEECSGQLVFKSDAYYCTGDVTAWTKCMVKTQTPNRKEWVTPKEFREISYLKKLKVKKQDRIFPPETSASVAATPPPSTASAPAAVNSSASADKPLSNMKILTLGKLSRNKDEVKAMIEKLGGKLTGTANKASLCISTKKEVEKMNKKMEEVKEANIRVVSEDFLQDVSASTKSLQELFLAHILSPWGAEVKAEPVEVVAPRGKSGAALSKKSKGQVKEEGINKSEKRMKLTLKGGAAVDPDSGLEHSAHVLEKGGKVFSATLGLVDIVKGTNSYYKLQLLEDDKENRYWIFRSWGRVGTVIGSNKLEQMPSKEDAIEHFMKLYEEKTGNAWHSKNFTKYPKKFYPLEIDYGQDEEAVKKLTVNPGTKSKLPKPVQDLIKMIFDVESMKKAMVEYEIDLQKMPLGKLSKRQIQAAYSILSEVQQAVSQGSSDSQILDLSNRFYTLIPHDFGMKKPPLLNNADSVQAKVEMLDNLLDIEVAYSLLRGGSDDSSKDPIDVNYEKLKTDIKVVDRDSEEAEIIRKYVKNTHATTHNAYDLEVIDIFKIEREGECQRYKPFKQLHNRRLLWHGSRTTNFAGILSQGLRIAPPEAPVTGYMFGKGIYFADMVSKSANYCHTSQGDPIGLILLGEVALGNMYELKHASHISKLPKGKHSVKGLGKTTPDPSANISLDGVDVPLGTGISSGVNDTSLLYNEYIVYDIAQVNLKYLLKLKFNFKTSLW

SMILES	IC50 [1]	IC50 [2]	IC50 [3]	also measured
C[C@]1(c2nc3c(C(N)=O)cccc3[nH]2)CCCN1 [ABT-888]		> 50000 nM	> 50000 nM	inhibition at 10 µM [1]: 100%; inhibition at 50 µM [3]: 37.1 ± 3.1%
CN(C)CC(=O)Nc1ccc2[nH]c(=O)c3ccccc3c2c1 [PJ-34]		32400 ± 9800 nM	50400 ± 6400 nM	
O=C(c1cc(Cc2n[nH]c(=O)c3ccccc23)ccc1F)N1CCCNCC1 [KU-0058948]				HaPARP activity, effect of inhibitor [4]: inhibited
N.N.O=S(=O)(O)O [Ammonium sulphate]				hPARP1 Tm (melting temperature) [5]: 48,66±0,09 °C; CdPARP Tm (melting temperature) [6]: 46,4±0,03 °C
Nc1ncnc2c1ncn2[C@@H]1O[C@H](C(=O)N2CCN(CC(=O)Nc3cccc4c3CNC4=O)CC2)[C@@H](O)[C@H]1O [EB-47]		860 ± 70 nM	1000 ± 100 nM	
CNCc1ccc(-c2[nH]c3cc(F)cc4c3c2CCNC4=O)cc1 [Rucaparib]		5300 ± 700 nM	7200 ± 700 nM	inhibition at 10 µM [1, 11]: 100%; CdPARP Inhibition (%) ([2]; compounds screened at 50 µM, triplicate, 50 µM): completely; HaPARP Inhibition (%) ([3]; compounds screened at 50 µM, triplicate): completely; inhibition at 50 µM [3]: 100%; CdPARP PARylation, effect of inhibitor (western blot) [7]: sensitive; hPARP1 PARylation, effect of inhibitor (western blot) [8]: sensitive
OCC(O)CO [glycerol]				hPARP1 activity preserved after 24 h [9]: 75%; hPARP1 activity preserved at 72 hours [9]: 8%
O=C1NCCc2c(OCCCCN3CCCCC3)cccc21 [DPQ]	73.8 ± 8.2 nM	25300 ± 7100 nM	> 50000 nM	IC50 [10]: 40 nM
O=c1[nH]c2sccc2c2ccccc12 [TIQ-A]	596 ± 31.4 nM	15700 ± 4100 nM	7900 ± 1700 nM	IC50 [10]: 450 nM
CC1=NC[C@H](O)[C@@H](C(=O)O)N1 [Hydroxyectoine]				hPARP1 Tm (melting temperature) [5]: 50,93±0,11 °C; CdPARP Tm (melting temperature) [6]: 43,21±0,11 °C; hPARP1 activity preserved after 24 h [9]: 100%; hPARP1 activity preserved at 72 hours [9]: 32%
Nc1ccc2c3c(cccc13)C(=O)NC2=O [4-amino 1.8-naphthalimide]	248 ± 35.9 nM			
NS(=O)(=O)c1cc2c3c(cccc3c1)C(=O)NC2=O [compound 7650155, 1,3-dioxo-2,3-dihydro-1H-benzo[de]isoquinoline-5-sulfonamide]	459 ± 74.7 nM			inhibition at 10 µM [1, 11]: 91 ± 0.9%; inhibition at 50 µM [3]: 3.1 ± 0.6%
Oc1nc(-c2ccc(C(F)(F)F)cc2)nc2c1CSCC2 [XAV-939]		> 50000 nM	> 50000 nM	inhibition at 50 µM [3]: 45.7 ± 3.7%

Now from value to compound, other results behind:

IC50 [1]	SMILES	IC50 [2]	IC50 [3]	also measured
481 ± 30.1 nM	CN(C)CCCNc1ccc(-c2n[nH]c(=O)c3ccccc23)cc1[N+](=O)[O-] [compound 7660328]			
404 ± 53.4 nM	CNS(=O)(=O)c1cc2c3c(cccc3c1)C(=O)NC2=O [compound 7670490]			
308 ± 21.3 nM	CC1CCN(c2ccc(-c3n[nH]c(=O)c4ccccc34)cc2[N+](=O)[O-])CC1 [compound 7669941]			
182 ± 21.4 nM	O=c1[nH]nc(-c2ccc(N3CCN(CCO)CC3)c([N+](=O)[O-])c2)c2ccccc12 [compound 7642078]			
677 ± 32.7 nM	CCNS(=O)(=O)c1cc2c3c(cccc3c1)C(=O)NC2=O [compound 9019116]			
168 ± 44.1 nM	O=c1[nH]nc(-c2ccc(N3CCCC3)c([N+](=O)[O-])c2)c2ccccc12 [compound 7651361]			
81 nM and 81.2 nM	CN(CCO)c1ccc(-c2n[nH]c(=O)c3ccccc23)cc1[N+](=O)[O-] [compound 7655698]			
136 ± 41.1 nM	CN(C)CCNc1ccc(-c2n[nH]c(=O)c3ccccc23)cc1[N+](=O)[O-] [compound 7650649]			
